Measured values published in patent US20100119599A1 (ARCHER PHARMACEUTICALS, INC., priority 2006, published 2010).
Read-outs that look alike come from different tables or passages of the source.

Key:
Aβ1-40 = test: Measurement of Aβ1-40 in culture medium of 7W WT APP751 CHO cells by ELISA; format: cell-based, Chinese hamster; conditions: for activity at 5 µM: Cricetulus griseus, 5 μM test compound, CHO cells stably transfected with human APP751, culture medium, ELISA, control DMSO; for Aβ1-40 (% of control): CHO cells that overexpress APP751, zero = below the detection limit of the assay;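 on all read-outs here: 5 µM test compound but RI-coded compounds at 10 µM for 24 hours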
Aβ1-42 = test: Measurement of Aβ1-42 in culture medium of 7W WT APP751 CHO cells by ELISA; format: cell-based, Chinese hamster; conditions: for activity at 5 µM: Cricetulus griseus, 5 μM test compound, CHO cells stably transfected with human APP751, culture medium, ELISA, control DMSO; for Aβ1-42 (% of control): CHO cells that overexpress APP751, zero = below the detection limit of the assay;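 on Aβ1-42 (% of control): 5 µM test compound but RI-coded compounds at 10 µM for 24 hours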
[1] = Table 1, 0 = no detectable amount
[2] = Table 1, 0 = no detectable amount, read-out: Aβ1-42 (% of control)

Compound	activity at 5 µM (Aβ1-40; [1]) [%]	activity at 5 µM (Aβ1-42; [2]) [%]	also measured
CCSCCOC(=O)C1=C(C)NC2=C(C(=O)CC(C)(C)C2)C1c1ccccc1C (stereo not drawn) [ST052342, 2-ethylthioethyl 2,7,7-trimethyl-4-(2-methylphenyl)-5-oxo-1,4,6,7,8-pentahydroquinoline-3-carboxylate]	13.7	9.88	
CCOC(=O)C1=C(C)NC2=C(C(=O)CCC2)C1c1cccc(F)c1 (stereo not drawn) [ST013162, ethyl 4-(3-fluorophenyl)-2-methyl-5-oxo-1,4,6,7,8-pentahydroquinoline-3-carboxylate]	33.4	36.3	
CCCCOC(=O)C1=C(C)NC2=C(C(=O)CC(C)(C)C2)C1c1cccc(Cl)c1Cl (stereo not drawn) [ST013239, butyl 4-(2,3-dichlorophenyl)-2,7,7-trimethyl-5-oxo-1,4,6,7,8-pentahydroquinoline-3-carboxylate]	0	59.5	
CC1=C(C(=O)OCC(C)C)C(c2ccc(OCc3ccccc3)cc2)C2=C(CCCC2=O)N1 (stereo not drawn) [ST017342, 2-methylpropyl 2-methyl-5-oxo-4-[4-(phenylmethoxy)phenyl]-1,4,6,7,8-pentahydroquinoline-3-carboxylate]	28.8	93.5	
COc1cc(/C=c2\sc3n(c2=O)C(N)=C(C#N)C(c2ccc(O)c(OC)c2)C=3C#N)ccc1O (stereo not drawn) [ST025032, 5-amino-7-(4-hydroxy-3-methoxyphenyl)-2-[(4-hydroxy-3-methoxyphenyl)methylene]-3-oxo-4,7-dihydro-1,3-thiazolidino[3,2-a]pyridine-6,8-dicarbonitrile]			Aβ1-40 (% of control) (Aβ1-40): 27.77 % of control; Aβ1-42 (% of control) (Aβ1-42): 32.98 % of control
COC(=O)C1=C(C)NC(C)=C(C(=O)OC)C1c1cccc(Br)c1 [ST208634, methyl 4-(3-bromophenyl)-5-(methoxycarbonyl)-2,6-dimethyl-1,4-dihydropyridine-3-carboxylate]			Aβ1-40 (% of control) (Aβ1-40): 80.5 % of control; Aβ1-42 (% of control) (Aβ1-42): 32.51 % of control
Cc1ccsc1/C=c1\sc2n(c1=O)C(N)=C(C#N)C(c1sccc1C)C=2C#N (stereo not drawn) [ST006952, 5-amino-7-(3-methyl(2-thienyl))-2-[(3-methyl(2-thienyl))methylene]-3-oxo-4,7-dihydro-1,3-thiazolidino[3,2-a]pyridine-6,8-dicarbonitrile]			Aβ1-40 (% of control) (Aβ1-40): 48.24 % of control; Aβ1-42 (% of control) (Aβ1-42): 77.1 % of control
CC1=C(C#N)C(c2ccc(Cl)cc2)C2=C(CC(C)(C)CC2=O)N1 (stereo not drawn) [ST013410, 4-(4-chlorophenyl)-2,7,7-trimethyl-5-oxo-1,4,6,7,8-pentahydroquinoline-3-carbonitrile]	22	26	
O=C(N=C1CC(c2ccccc2)N(c2ccncc2)CC1[N+](=O)[O-])Nc1cccnc1 (stereo not drawn) [ST026819, 2-(5-nitro-2-phenyl-1-(4-pyridyl)(4-6-hydropyridylidene))-N-(3-pyridyl)-2-azaace tamide]			activity at 5 µM (Aβ1-40; Table 3): 64.9%; activity at 5 µM (Aβ1-42; Table 3, read-out: Aβ-42 (% of control)): 57.8%
N#CC1=C(N)n2c(s/c(=C\c3ccccc3)c2=O)=C(C#N)C1c1ccccc1 (stereo not drawn) [RI_95]			Aβ1-40 (% of control) (Aβ1-40): 67.9 % of control; Aβ1-42 (% of control) (Aβ1-42): 69.9 % of control
CC1=C(C(=O)OCCOc2ccccc2)C(c2ccccc2OC(C)C)C2=C(CCCC2=O)N1 (stereo not drawn) [ST014919, 2-phenoxyethyl 2-methyl-4-[2-(methylethoxy)phenyl]-5-oxo-1,4,6,7,8-pentahydroquinoline-3-carboxylate]	63.4	85.1	
CCOC(=O)C1=C(C)NC2=C(C(=O)CCC2)C1c1cccc(O)c1 (stereo not drawn) [ST013148, ethyl 4-(3-hydroxyphenyl)-2-methyl-5-oxo-1,4,6,7,8-pentahydroquinoline-3-carboxylate]	66.1	49.9	
COC(=O)C1=C(C)NC2=C(C(=O)CC(C)(C)C2)C1c1ccc(-c2ccccc2)cc1 (stereo not drawn) [ST216875, methyl 2,7,7-trimethyl-5-oxo-4-(4-phenylphenyl)-1,4,6,7,8-pentahydroquinoline-3-carboxylate]	14.2	33	
CCc1cccc(NC(=O)CSC2=C(C#N)C(c3ccc(Cl)s3)C(C(=O)Nc3ccccc3)=C(C)N2)c1 (stereo not drawn) [RI_88]			Aβ1-40 (% of control) (Aβ1-40): 70.1 % of control; Aβ1-42 (% of control) (Aβ1-42): 54.6 % of control
CC1=C(C(=O)OCCOc2ccccc2)C(c2ccc(C)cc2)C2=C(CC(C)(C)CC2=O)N1 (stereo not drawn) [ST015095, 2-phenoxyethyl 2,7,7-trimethyl-4-(4-methylphenyl)-5-oxo-1,4,6,7,8-pentahydroquinoline-3-carboxylate]	59.7	0	
CCCCCOC(=O)C1=C(C)NC2=C(C(=O)CCC2)C1c1ccc(OC)c(OC)c1OC (stereo not drawn) [ST013346, pentyl 2-methyl-5-oxo-4-(2,3,4-trimethoxyphenyl)-1,4,6,7,8-pentahydroquinoline-3-carboxylate]	16.3	77.7	
CCOC(=O)C1=CN(c2ccc(F)cc2)C=C(C(=O)OCC)C1c1cccs1 [ST052327, ethyl 5-(ethoxycarbonyl)-1-(4-fluorophenyl)-4-(2-thienyl)-1,4-dihydropyridine-3-carboxylate]			Aβ1-40 (% of control) (Aβ1-40): 57.74 % of control; Aβ1-42 (% of control) (Aβ1-42): 84.33 % of control
COC(=O)C1=C(C)NC2=C(C(=O)CC(c3ccccc3Cl)C2)C1c1ccc([N+](=O)[O-])cc1 (stereo not drawn) [ST015176, methyl 7-(2-chlorophenyl)-2-methyl-4-(4-nitrophenyl)-5-oxo-1,4,6,7,8-pentahydroquinoline-3-carboxylate]	17.4	76.4	
COC(=O)C1=C(C)NC2=C(C(=O)CC(c3ccccc3)C2)C1c1ccc(O)c(OC)c1 (stereo not drawn) [ST013115, methyl 4-(4-hydroxy-3-methoxyphenyl)-2-methyl-5-oxo-7-phenyl-1,4,6,7,8-pentahydroquinoline-3-carboxylate]	94.7	65.7	
CCSCCOC(=O)C1=C(C)NC2=C(C(=O)CC(c3cccs3)C2)C1c1cccc(Cl)c1 (stereo not drawn) [ST051570, 2-ethylthioethyl 4-(3-chlorophenyl)-2-methyl-5-oxo-7-(2-thienyl)-1,4,6,7,8-pentahydroquinoline-3-carboxylate]	31.7	93.8	
COC(=O)C1=C(C)NC2=C(C(=O)CC(C)(C)C2)C1c1cccc(Br)c1 (stereo not drawn) [ST013145, methyl 4-(3-bromophenyl)-2,7,7-trimethyl-5-oxo-1,4,6,7,8-pentahydroquinoline-3-carboxylate]	13.9	43.3	
COC(=O)C1=C(C)NC2=C(C(=O)CC(C)(C)C2)C1c1ccc(OCc2ccc(Cl)cc2)c(OC)c1 (stereo not drawn) [ST028595, methyl 4-{4-[(4-chlorophenyl)methoxy]-3-methoxyphenyl}-2,7,7-trimethyl-5-oxo-1,4,6,7,8-pentahydroquinoline-3-carboxylate]	34.4	98.9	
COc1ccc(COC(=O)C2=C(C)NC3=C(C(=O)CCC3)C2c2ccc(C(F)(F)F)cc2)cc1 (stereo not drawn) [ST052362, (4-methoxyphenyl)methyl 2-methyl-5-oxo-4-[4-(trifluoromethyl)phenyl]-1,4,6,7,8-pentahydroquinoline-3-carboxylate]	7.11	0	
CC1=C(C(=O)OC(C)C)C(c2cccnc2)C2=C(CC(c3ccc(Cl)cc3)CC2=O)N1 (stereo not drawn) [ST017331, methylethyl 7-(4-chlorophenyl)-2-methyl-5-oxo-4-(3-pyridyl)-1,4,6,7,8-pentahydroquinoline-3-carboxylate]	1.11	0	
